Key:
Assay type in all cases: binding
TSPyV VP1 [1] = molecular target: T1, TSPyV VP1 (Trichodysplasia spinulosa-associated polyomavirus, UniProt E2ESL7); assay: X-ray crystal structure, soaked ([…] Å); conditions: 10 mM glycan, 15 min soak of native crystals, reservoir pH 5.0; BC2-loop site with ccw DE-loop
T1 construct: N- and C-terminally truncated VP1 (aa 31-304), pET28b, E. coli BL21(DE3); unassembled homopentamer

TSPyV VP1 [2] = molecular target: T1, TSPyV VP1; assay: X-ray co-crystal structure ([…] Å); conditions: 10 mM glycan, co-crystallization, 20 °C, reservoir pH 5.0; BC2-loop site with ccw DE-loop
TSPyV VP1 [3] = molecular target: T1, TSPyV VP1; assay: X-ray co-crystal structure ([…] Å); also STD NMR; conditions: 10 mM glycan, co-crystallization, 20 °C, reservoir pH 5.0; STD NMR pH 7.4, 288 K; BC2-loop site with ccw DE-loop

CC(=O)N[C@H]1[C@H]([C@H](O)[C@H](O)CO)O[C@@](O[C@H]2[C@@H](O)[C@@H](CO)O[C@@H](O[C@H]3[C@H](O)[C@@H](O)C(O)O[C@@H]3CO)[C@@H]2O)(C(=O)O)C[C@@H]1O (stereo partly drawn) [3’SL]
X-ray crystal structure, soaked (1.55 Å) (TSPyV VP1 [1]): 4U62 (TSPyV VP1-3’SL)

CC(=O)N[C@H]1[C@H]([C@H](O)[C@H](O)CO)O[C@@](OC[C@H]2O[C@@H](O[C@H]3[C@H](O)[C@@H](O)C(O)O[C@@H]3CO)[C@H](O)[C@@H](O)[C@H]2O)(C(=O)O)C[C@@H]1O (stereo partly drawn) [6’SL]
X-ray co-crystal structure (1.65 Å) (TSPyV VP1 [2]): 4U61 (TSPyV VP1-6’SL)

CC(=O)N[C@H]1[C@H](O[C@@H]2[C@H](O[C@]3(C(=O)O)C[C@H](O)[C@@H](NC(C)=O)[C@H]([C@H](O)[C@H](O)CO)O3)[C@@H](O)[C@H](O[C@H]3[C@H](O)[C@@H](O)C(O)O[C@@H]3CO)O[C@@H]2CO)O[C@H](CO)[C@H](O)[C@@H]1O[C@@H]1O[C@H](CO)[C@H](O)[C@H](O)[C@H]1O (stereo partly drawn) [GM1 glycan]
X-ray co-crystal structure (1.50 Å); also STD NMR (TSPyV VP1 [3]): 4U60 (TSPyV VP1-GM1 glycan)

— publication PMC4547793, “Trichodysplasia spinulosa-Associated Polyomavirus Uses a Displaced Binding Site on VP1 to Engage Sialylated Glycolipids” (PLoS Pathogens, 2015)
